Columns and labels:
Assay in all cases: relative viability (nuclei count vs DMSO), 5 days (fraction); higher = more cells survive
Sulindac + Tozasertib = compound: CC1=C(CC(=O)O)c2cc(F)ccc2/C1=C\c1ccc([S+](C)[O-])cc1 [Sulindac] + Cc1cc(Nc2cc(N3CCN(C)CC3)nc(Sc3ccc(NC(=O)C4CC4)cc3)n2)n[nH]1 [Tozasertib] (partner 0.1 µM)
Method in brief: (§1)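 Relative viability was taken as the ratio of nuclei in treated wells to nuclei in vehicle wells. Lung cancer cell lines in 1536-well plates received compounds by pin tool one day after seeding, either one drug alone or a fixed anchor-drug dose plus five library-drug doses (not always all listed) in √10 steps. Nuclei were counted on 4× images after 5 days of treatment, and values are medians of duplicate plates.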

[1] = compound: O=c1[nH]cc(F)c(=O)[nH]1 [5-Fluorouracil] + CC(C)C[C@H](NC(=O)[C@H](Cc1ccccc1)NC(=O)c1cnccn1)B(O)O [Bortezomib] (partner 0.002 µM)
Method in brief: as §1

[2] = compound: O=c1[nH]cc(F)c(=O)[nH]1 [5-Fluorouracil] + CS(=O)(=O)N1CCN(Cc2cc3nc(-c4cccc5[nH]ncc45)nc(N4CCOCC4)c3s2)CC1 [Pictilisib] (partner 1 µM)
Method in brief: as §1

[3] = compound: O=c1[nH]cc(F)c(=O)[nH]1 [5-Fluorouracil] + O=C(c1cc(Cc2n[nH]c(=O)c3ccccc23)ccc1F)N1CCN(C(=O)C2CC2)CC1 [Olaparib] (partner 8 µM)
Method in brief: as §1

HCC-827 was tested, and the relative viability (Sulindac + Tozasertib; first compound 0.08 µM) was 0.485, the relative viability (Sulindac + Tozasertib; first compound 0.253 µM) was 0.432 and the relative viability (Sulindac + Tozasertib; first compound 0.8 µM) was 0.435. For the same cell line, the relative viability (Sulindac + Tozasertib; first compound 2.53 µM) was 0.418, the relative viability (Sulindac + Tozasertib; first compound 8 µM) was 0.466 and the relative viability ([1]; first compound 0.02 µM) was 0.805. It also gave a relative viability ([1]; first compound 0.2 µM) of 1.1, a relative viability ([1]; first compound 0.6325 µM) of 0.733 and a relative viability ([1]; first compound 2 µM) of 0.596. It also gave a relative viability ([2]; first compound 0.02 µM) of 0.749, a relative viability ([2]; first compound 0.2 µM) of 1.03 and a relative viability ([2]; first compound 0.6325 µM) of 0.656. For the same cell line, the relative viability ([2]; first compound 2 µM) was 0.478, the relative viability ([3]; first compound 0.02 µM) was 0.336 and the relative viability ([3]; first compound 0.2 µM) was 0.647. For the same cell line, the relative viability ([3]; first compound 0.6325 µM) was 0.552 and the relative viability ([3]; first compound 2 µM) was 0.304.

With NCI-H727 the relative viability (Sulindac + Tozasertib; first compound 0.08 µM) was 0.609, the relative viability (Sulindac + Tozasertib; first compound 0.253 µM) was 1.78 and the relative viability (Sulindac + Tozasertib; first compound 2.53 µM) was 0.451. It also gave a relative viability (Sulindac + Tozasertib; first compound 8 µM) of 0.795, a relative viability ([1]; first compound 0.02 µM) of 1 and a relative viability ([1]; first compound 0.2 µM) of 1.01. The relative viability ([1]; first compound 0.6325 µM) was 0.776, the relative viability ([1]; first compound 2 µM) was 0.782 and the relative viability ([2]; first compound 0.02 µM) was 0.395. It also gave a relative viability ([2]; first compound 0.2 µM) of 0.464, a relative viability ([2]; first compound 0.6325 µM) of 0.369 and a relative viability ([2]; first compound 2 µM) of 0.305. For the same cell line, the relative viability ([3]; first compound 0.02 µM) was 0.748, the relative viability ([3]; first compound 0.2 µM) was 0.821 and the relative viability ([3]; first compound 0.6325 µM) was 0.747. It also gave a relative viability ([3]; first compound 2 µM) of 0.593.

CAL-12T showed a relative viability (Sulindac + Tozasertib; first compound 0.08 µM) of 0.253, a relative viability (Sulindac + Tozasertib; first compound 0.253 µM) of 0.282 and a relative viability (Sulindac + Tozasertib; first compound 0.8 µM) of 0.322. For the same cell line, the relative viability (Sulindac + Tozasertib; first compound 2.53 µM) was 0.301, the relative viability (Sulindac + Tozasertib; first compound 8 µM) was 0.365 and the relative viability ([1]; first compound 0.02 µM) was 1.13. For the same cell line, the relative viability ([1]; first compound 0.2 µM) was 1.05, the relative viability ([1]; first compound 0.6325 µM) was 0.911 and the relative viability ([1]; first compound 2 µM) was 0.751. The relative viability ([2]; first compound 0.02 µM) was 0.461, the relative viability ([2]; first compound 0.2 µM) was 0.717 and the relative viability ([2]; first compound 0.6325 µM) was 0.346. For the same cell line, the relative viability ([2]; first compound 2 µM) was 0.394, the relative viability ([3]; first compound 0.02 µM) was 0.701 and the relative viability ([3]; first compound 0.2 µM) was 0.634. It also gave a relative viability ([3]; first compound 0.6325 µM) of 0.638 and a relative viability ([3]; first compound 2 µM) of 0.365.

Cell Line NCI-H1648 has a relative viability (Sulindac + Tozasertib; first compound 0.08 µM) of 0.397, a relative viability (Sulindac + Tozasertib; first compound 0.253 µM) of 0.482 and a relative viability (Sulindac + Tozasertib; first compound 0.8 µM) of 0.345. The relative viability (Sulindac + Tozasertib; first compound 2.53 µM) was 0.415, the relative viability (Sulindac + Tozasertib; first compound 8 µM) was 0.389 and the relative viability ([3]; first compound 0.02 µM) was 0.632. For the same cell line, the relative viability ([3]; first compound 0.2 µM) was 0.796, the relative viability ([3]; first compound 0.6325 µM) was 0.638 and the relative viability ([3]; first compound 2 µM) was 0.332.

Work on NCI-H522 yielded a relative viability (Sulindac + Tozasertib; first compound 0.08 µM) of 0.676, a relative viability (Sulindac + Tozasertib; first compound 0.253 µM) of 0.643 and a relative viability (Sulindac + Tozasertib; first compound 0.8 µM) of 0.541. The relative viability (Sulindac + Tozasertib; first compound 2.53 µM) was 0.502, the relative viability (Sulindac + Tozasertib; first compound 8 µM) was 0.575 and the relative viability ([3]; first compound 0.02 µM) was 0.547. It also gave a relative viability ([3]; first compound 0.2 µM) of 0.618, a relative viability ([3]; first compound 0.6325 µM) of 0.647 and a relative viability ([3]; first compound 2 µM) of 0.621.

IA-LM was tested, and the relative viability ([1]; first compound 0.02 µM) was 0.766, the relative viability ([1]; first compound 0.2 µM) was 0.327 and the relative viability ([1]; first compound 0.6325 µM) was 0.193. It also gave a relative viability ([1]; first compound 2 µM) of 0.141, a relative viability ([2]; first compound 0.02 µM) of 0.459 and a relative viability ([2]; first compound 0.2 µM) of 0.286. For the same cell line, the relative viability ([2]; first compound 0.6325 µM) was 0.256, the relative viability ([2]; first compound 2 µM) was 0.209 and the relative viability ([3]; first compound 0.02 µM) was 1. The relative viability ([3]; first compound 0.2 µM) was 0.576, the relative viability ([3]; first compound 0.6325 µM) was 0.285 and the relative viability ([3]; first compound 2 µM) was 0.193.

In the case of EPLC-272H, the relative viability (Sulindac + Tozasertib; first compound 0.08 µM) was 0.152, the relative viability (Sulindac + Tozasertib; first compound 0.253 µM) was 0.25 and the relative viability (Sulindac + Tozasertib; first compound 2.53 µM) was 0.25. The relative viability (Sulindac + Tozasertib; first compound 8 µM) was 0.408, the relative viability ([1]; first compound 0.02 µM) was 0.891 and the relative viability ([1]; first compound 0.2 µM) was 0.733. It also gave a relative viability ([1]; first compound 0.6325 µM) of 0.376, a relative viability ([1]; first compound 2 µM) of 0.254 and a relative viability ([2]; first compound 0.02 µM) of 0.337. The relative viability ([2]; first compound 0.2 µM) was 0.294, the relative viability ([2]; first compound 0.6325 µM) was 0.199 and the relative viability ([2]; first compound 2 µM) was 0.221. For the same cell line, the relative viability ([3]; first compound 0.02 µM) was 0.737, the relative viability ([3]; first compound 0.2 µM) was 0.67 and the relative viability ([3]; first compound 0.6325 µM) was 0.32. For the same cell line, the relative viability ([3]; first compound 2 µM) was 0.21.

Work on A-427 yielded a relative viability (Sulindac + Tozasertib; first compound 0.08 µM) of 0.176, a relative viability (Sulindac + Tozasertib; first compound 0.253 µM) of 0.198 and a relative viability (Sulindac + Tozasertib; first compound 0.8 µM) of 0.193. For the same cell line, the relative viability (Sulindac + Tozasertib; first compound 2.53 µM) was 0.177, the relative viability (Sulindac + Tozasertib; first compound 8 µM) was 0.206 and the relative viability ([1]; first compound 0.02 µM) was 0.888. It also gave a relative viability ([1]; first compound 0.2 µM) of 1.07, a relative viability ([1]; first compound 0.6325 µM) of 0.986 and a relative viability ([1]; first compound 2 µM) of 0.532. For the same cell line, the relative viability ([2]; first compound 0.02 µM) was 0.664, the relative viability ([2]; first compound 0.2 µM) was 0.823 and the relative viability ([2]; first compound 0.6325 µM) was 0.581. It also gave a relative viability ([2]; first compound 2 µM) of 0.587, a relative viability ([3]; first compound 0.02 µM) of 0.68 and a relative viability ([3]; first compound 0.2 µM) of 0.521. For the same cell line, the relative viability ([3]; first compound 0.6325 µM) was 0.674 and the relative viability ([3]; first compound 2 µM) was 0.385.

With NCI-H661 the relative viability (Sulindac + Tozasertib; first compound 0.08 µM) was 0.351, the relative viability (Sulindac + Tozasertib; first compound 0.253 µM) was 0.336 and the relative viability (Sulindac + Tozasertib; first compound 0.8 µM) was 0.362. The relative viability (Sulindac + Tozasertib; first compound 2.53 µM) was 0.362, the relative viability (Sulindac + Tozasertib; first compound 8 µM) was 0.38 and the relative viability ([1]; first compound 0.02 µM) was 0.669. It also gave a relative viability ([1]; first compound 0.2 µM) of 0.816, a relative viability ([1]; first compound 0.6325 µM) of 0.759 and a relative viability ([1]; first compound 2 µM) of 0.804. For the same cell line, the relative viability ([2]; first compound 0.02 µM) was 0.35, the relative viability ([2]; first compound 0.2 µM) was 0.469 and the relative viability ([2]; first compound 0.6325 µM) was 0.376. It also gave a relative viability ([2]; first compound 2 µM) of 0.433, a relative viability ([3]; first compound 0.02 µM) of 0.776 and a relative viability ([3]; first compound 0.2 µM) of 0.8. It also gave a relative viability ([3]; first compound 0.6325 µM) of 0.808 and a relative viability ([3]; first compound 2 µM) of 0.693.

— the supplement of paper PMC10307832
